Reference: ChEMBL document CHEMBL4266028, “Salviachinensines A-F, Antiproliferative Phenolic Derivatives from the Chinese Medicinal Plant Salvia chinensis” (J Nat Prod, 2018)
Active and inactive are the calls of the source. No cut-off for these calls is given here.

Tests used:
Type in all cases: functional, cell-based
MOLM-13 [1] = test: Antiproliferative activity against human MOLM13 cells by Cell-Titer Glo assay
MOLM-14 = test: Antiproliferative activity against human MOLM14 cells by Cell-Titer Glo assay
MV4-11 = test: Antiproliferative activity against human MV4-11 cells by Cell-Titer Glo assay
MOLM-13 [2] = test: Cell cycle arrest in human MOLM13 cells assessed as accumulation at G0/G1 phase at 5 uM by flow cytometry
MOLM-13 [3] = test: Induction of apoptosis in human MOLM13 cells assessed as increase in PARP cleavage at 5 uM after 24 hrs by Western blot analysis
MOLM-13 [4] = test: Induction of apoptosis in human MOLM13 cells assessed as increase in caspase-3 cleavage at 5 uM after 24 hrs by Western blot analysis

Row | Structure (SMILES) | IC50 (MOLM-13 [1]) [µM] | IC50 (MOLM-14; Homo sapiens, MOLM-14) [µM] | IC50 (MV4-11) [µM] | IC50 (MOLM-14; molm-14) [µM] | Activity (MOLM-13 [2]) | Activity (MOLM-13 [3]) | Activity (MOLM-13 [4])
1 | COC(=O)[C@H](O)Cc1ccc2c(c1)O[C@H]([C@H](OC)c1ccc(O)c(O)c1)O2 | 5.2 | > 10 | > 10 |  |  |  | 
2 | O=C(/C=C/c1ccc(O)c(O)c1/C=C/c1ccc(O)c(O)c1)O[C@H](Cc1ccc(O)c(O)c1)C(=O)O [SALVIANOLIC ACID A] | 2.5 |  | > 10 | 6.2 |  |  | 
3 | O=C1C[C@H]2c3cc(O)c(O)cc3[C@H](c3ccc(O)c(O)c3)[C@H]2O1 | 2.3 | 7.1 | > 10 |  | Active | Active | Active
4 | COC(=O)[C@H](O)Cc1ccc(O)c(O)c1 | 7.5 | > 10 | > 10 |  |  |  | 
5 | O=C(O)/C=C/c1ccc(O)c(O)c1 [CAFFEIC ACID] | 6.4 | > 10 | > 10 |  |  |  | 
6 | COC(=O)[C@@H](Cc1ccc(O)c(O)c1)OC(=O)/C=C/c1ccc(O)c(O)c1/C=C/c1ccc(O)c(O)c1 | 6.7 | > 10 | > 10 |  |  |  | 
7 | O=C(/C=C/c1ccc(O)c(O)c1)O[C@H](Cc1ccc(O)c(O)c1)C(=O)O [ROSMARINIC ACID] | 2.9 | 7.1 | > 10 |  |  |  | 
8 | COC(=O)[C@@H](Cc1ccc(O)c(O)c1)OC(=O)/C=C/c1ccc(O)c(O)c1 [METHYL ROSMARINATE] | 8.4 | > 10 | > 10 |  |  |  | 
9 | Nc1ccc(-c2ccc3ncc4ccc(=O)n(-c5cccc(C(F)(F)F)c5)c4c3c2)cn1 | < 0.001 | < 0.001 | < 0.001 |  |  |  | 
